Assay results as given in patent publication US5098927A, “Antiretroviral agent, method of use thereas, and method of preparation” (Fujisawa Pharmaceutical Co., Ltd., priority 1989, dated 1992).

Key:
Friend leukemia virus [1] = test: Inhibitory effect on the induction of splenomegaly by Friend leukemia virus in mice; format: in vivo, mouse (male C3H/HeN); conditions: for inhibition of splenomegaly in mice (in words): Friend leukemia virus; for Spleen weight / Inhibition: day 14; for Inhibition: percent inhibition of infection from spleen weight
Description: Male C3H/HeN mice (5 weeks old) were intraperitoneally inoculated with 3.1 × 10^1 MID50 /mouse of Friend leukemia virus (in 0.2 ml) and then, after this infection procedure, the active ingredient [compound (I) or compound (II)] of the present invention was administered at a specified dose in the form of a solution in sterile physiological saline by the route specified below (Experiment 1 or 2). On day 14 after infection, the mice were sacrificed by exsanguination and the spleen weight (in mg) was measured for evaluating the inhibitory effect of the compound (I) and (II) on the induction of splenomegaly. In each experiment, the control group consisted of mice given no active ingredient after infection with Friend leukemia virus. The percent inhibition of infection was calculated as follows: [formula] The compound (I) was intravenously administered 4 hours after infection (day 0) and then twice daily on days 1 to 4 and days 7 to 11 (19 times in total). The compound (II) was orally administered 1 hour after infection and then according to the same schedule as in Experiment 1. The compound (II) used was in the α form, namely the compound (II'). Friend leukemia virus used in the above test is known to be a lymphotropic retrovirous, like HIV. Since the extent of splenomegaly in mice induced by said virus is proportional to the proliferation of said virus, the inhibitory effect of an agent on the proliferation of Friend leukemia virus can be estimated by assaying its inhibitory effect on the splenomegaly in mice.

[2] = Stability and hygroscopicity; format: physicochemical; conditions: compared with the pyrroline compound (I)
inflammation = test: Anti-inflammatory activity (general statement); conditions: stated in words
Friend leukemia virus [3] = test: Inhibitory effect on the induction of splenomegaly by Friend leukemia virus in mice; format: in vivo, mouse (male C3H/HeN); conditions: combination with azidothymidine (AZT); no data given
[4] = tested on: cytopathic effect of HIV: LAV-1-infected CEM cells / Molt4 (clone 8) cells; test: Inhibitory effect on the cytopathic effect of HIV (syncytium/giant cell formation); format: cell-based, human immunodeficiency virus (LAV-1)
Description: The inhibitory effect of the compound (I) on the cytopathic effect (syncytium formation) by HIV infection on T lymphocytes was evaluated in the following manner.
(1) CEM cells infected with LAV-1 were washed twice with RPMI 1640 medium and a cell suspension (1 × 10^6 cells/ml) was prepared using the same medium. The suspension was distributed in 100-μl portions into culture tubes (16 × 125 mm). Complete medium^*1 containing the compound (I) in several specified concentrations was added to the culture tubes and incubation was performed in the presence of 5% carbon dioxide a 37° C. for 3 days.
The LAV-1-infected CEM cells thus cultured were washed twice with RPMI 1640 medium and then adjusted to 4 × 10^5 cells/ml with the complete medium.
[*1: RPMI 1640 medium supplemented with 20% fetal calf serum, 2.5 mM glutamine, kanamycin (100 μg/ml) and penicillin G (100 units/ml)]
(2) Molt4 (clone 8) cells were washed twice with RPMI 1640 medium and then adjusted to 2 × 10^6 cells/ml with the complete medium.
(3) The LAV-1-infected CEM cell suspension in complete medium prepared in (1) and the Molt4 (clone 8) cell suspension in complete medium prepared in (2) were respectively distributed in 50-μl portions into 96 well flat bottomed tissue culture plate, followed by further addition of 50 μl of each solution of the compound (I) in complete medium to each well, which was, in advance, prepared to give a final concentration of compound (I) of 100 μg/ml, 50 μg/ml, 20 μg/ml or 10 μg/ml (the final volume in each well being 150 μl).
(4) The above tissue culture plate was incubated at 37° C. in the presence of 5% carbon dioxide for 16 hours and then the giant cells resulting from cytopathic alteration of Molt4 (clone 8) cells were counted within the visual field of a microscope (magnification × 400).
The compound (II) was also evaluated for the same inhibitory effect (the α isomer, i.e. the compound (II'), was selected as a representative of the compound (II)).

[5] = Acute toxicity testing in mice; format: in vivo, mouse (ddY, female)
Description: The compound (I) was administered to mice (ddY strain, female, 5 weeks old) at a dose of 1 g per kg body weight by intravenous injection.

α-glucosidase = conditions: stated without data; cited from earlier work
[6] = tested on: immunosuppressive factors; conditions: stated without data; cited from earlier work
[7] = tested on: Type II collagen-induced arthritis; test: Type II collagen-induced arthritis in rats; format: in vivo, rat (female Lewis); conditions: oral, means ± SEM
Description: (2R, 3S, 4R, 5R)-3,4-dihydroxy-5-hydroxymethyl-2-pyrrolidinesufonic acid (compound (II'))
Inbred 7-week-old female Lewis rats were handled under specific pathogen-free conditions and acclimated to the new environment for a week before use.
Type II bovine collagen was dissolved at 4° C. in 0.01M acetic acid at a concentration of 2 mg/ml. The solution was emulsified in an equal volume of incomplete Freund's adjuvant. Rats were anesthetized with sodium pentobarbital (30 mg/kg, i.p.) and the backs of rats were shaved. Under anesthesia, each rat was immunized with 0.8 ml of the cold emulsion by several intradermal injections on the depilated back and one or two injections into the base of the tail.
The test compound was dissolved in distilled water and administered orally at various doses in 5 ml/kg. From the day of immunization, the test compound or vehicle was administered once a day for 2 weeks.
The extent of arthritis was expressed as the increase in paw volume of each rat. The volume of both hind legs below the knee joint was measured with a plethysmometer. The rats were immunized on day 0 and the paw volume was measured on day 12 and 14. Mean increases in the paw volume of each group was calculated and the result was expressed as means ± SEM. Each group consisted of 10 rats.

## O=S(=O)(O)C1N[C@H](CO)[C@@H](O)[C@@H]1O (some centres unmarked) [(II)]
Friend leukemia virus [1]
  inhibition of splenomegaly in mice (in words): can inhibit such splenomegally in mice
[2]
  hygroscopicity: less hygroscopic than the pyrroline compound (I)
  stability: very stable
inflammation
  anti-inflammatory activity: has anti-inflammatory activity
Friend leukemia virus [3]
  potentiation of azidothymidine (AZT) in inhibiting splenomegaly in mice: can potentiate azidothymidine (AZT) in inhibiting such splenomegaly in mice

## OC[C@H]1N=C[C@@H](O)[C@@H]1O [Compound (I), (3R, 4R, 5R)-3,4-dihydroxy-5-hydroxymethyl-1-pyrroline]
[4]; compound (I) 10 μg/ml, 16 h, control (0 μg/ml) 260.5, mean of two countings
  Number of giant cells: 246.5
[4]; compound (I) 20 μg/ml, 16 h, control (0 μg/ml) 260.5, mean of two countings
  Number of giant cells: 147.5
[4]; compound (I) 50 μg/ml, 16 h, control (0 μg/ml) 260.5, mean of two countings
  Number of giant cells: 44.5
[4]; compound (I) 100 μg/ml, 16 h, control (0 μg/ml) 260.5, mean of two countings
  Number of giant cells: 9.5
Friend leukemia virus [1]
  inhibition of splenomegaly in mice (in words): can inhibit such splenomegally in mice
Friend leukemia virus [1]; intravenous, 20 mg/kg/administration, 19 times, control 1149 ± 220, normal 92 ± 3 mg, mean of 10 mice
  Spleen weight: 840 ± 421 mg
Friend leukemia virus [1]; intravenous, 20 mg/kg/administration, 19 times
  Inhibition: 29%
Friend leukemia virus [1]; intravenous, 80 mg/kg/administration, 19 times, control 1149 ± 220, normal 92 ± 3 mg, mean of 10 mice
  Spleen weight: 667 ± 241 mg
Friend leukemia virus [1]; intravenous, 80 mg/kg/administration, 19 times
  Inhibition: 46%
[5]; 1 g per kg body weight, intravenous injection
  body weight: body weight gains
[5]; mouse, in vivo, iv
  survival: The mice survived
Friend leukemia virus [3]
  potentiation of azidothymidine (AZT) in inhibiting splenomegaly in mice: can potentiate azidothymidine (AZT) in inhibiting such splenomegaly in mice
α-glucosidase
  α-glucosidase inhibiting activity: α-glucosidase inhibiting activity
[6]
  activity against immunosuppressive factors: activity against immunosuppressive factors

## O=S(=O)(O)[C@H]1N[C@H](CO)[C@@H](O)[C@@H]1O [Compound (II'), (2R, 3S, 4R, 5R)-3,4-dihydroxy-5-hydroxymethyl-2-pyrrolidinesulfonic acid]
[4]; compound (II') 1 μg/ml, control (0 μg/ml) 173.0 ± 2.0, mean ± SD
  Number of giant cells: 119.5 ± 16.5
[4]; compound (II') 3 μg/ml, control (0 μg/ml) 173.0 ± 2.0, mean ± SD
  Number of giant cells: 106.0 ± 19
[4]; compound (II') 10 μg/ml, control (0 μg/ml) 173.0 ± 2.0, mean ± SD
  Number of giant cells: 89.0 ± 10
[4]; compound (II') 30 μg/ml, control (0 μg/ml) 173.0 ± 2.0, mean ± SD
  Number of giant cells: 53.5 ± 8.5
[4]; compound (II') 100 μg/ml, control (0 μg/ml) 173.0 ± 2.0, mean ± SD
  Number of giant cells: 26.5 ± 3.5
Friend leukemia virus [1]; oral, 10 mg/kg/administration, first 1 hour after infection, control 1073 ± 26, normal 79 ± 2 mg, mean of 8 mice
  Spleen weight: 875 ± 71 mg
Friend leukemia virus [1]; oral, 10 mg/kg/administration, first 1 hour after infection
  Inhibition: 20%
[7]; 10 mg/kg once a day, 12 day, control 0.29 ± 0.13, normal 0.03 ± 0.07
  Paw volume change: 0.16 ± 0.15 mL
[7]; 10 mg/kg once a day, 14 day, control 0.41 ± 0.24, normal 0.05 ± 0.03
  Paw volume change: 0.27 ± 0.21 mL
[7]; 32 mg/kg once a day, 12 day, control 0.29 ± 0.13, normal 0.03 ± 0.07
  Paw volume change: 0.13 ± 0.10 mL
[7]; 32 mg/kg once a day, 14 day, control 0.41 ± 0.24, normal 0.05 ± 0.03
  Paw volume change: 0.19 ± 0.22 mL
[7]; 100 mg/kg once a day, 12 day, control 0.29 ± 0.13, normal 0.03 ± 0.07
  Paw volume change: 0.08 ± 0.11 mL
[7]; 100 mg/kg once a day, 14 day, control 0.41 ± 0.24, normal 0.05 ± 0.03
  Paw volume change: 0.06 ± 0.04 mL
